# Literature values as cited in patent US20240335422A1, “COMPOSITION AND METHODS OF TREATMENT USING TRANSDERMAL SUPPLEMENTATION” (Xygenyx Inc., priority 2023, published 2024).
# Experiments:
# skin [1] = conditions: topical, in combination with silymarin and tocopherols, test studies
# [2] = compared to α-tocopherol taken as 1.0
# [3] = in vivo
# skin [4] = conditions: single penetration enhancer
# [5] = not given; remark: listed apart in the source
# skin [6] = conditions: topical, concentrations 0.5-5%
# [7] = system: wide dynamic range neurons in the ventroposterolateral nucleus of the thalamus; conditions: in vivo
# [8] = even when dietary intake occurs in equal portions
molecule,measurement,setting,value
"NCCC(=O)N[C@@H](Cc1cnc[nH]1)C(=O)O [carnosine, Carnosine]",reduction of age-related wrinkles,skin [1],≤ 27%
Cc1c(C)c2c(c(C)c1O)CC[C@@](C)(CCC[C@H](C)CCC[C@H](C)CCCC(C)C)O2 [α-tocopherol],reduction of risk of coronary disease,"dietary supplementation, doses up to 400 IU/day",up to 34%
same,reduction of risk of developing neurodegenerative diseases (Alzheimer's Syndrome or dementia),"dietary supplementation, doses up to 400 IU/day, controlled trials",≤ 24%
same,reduction in the development of age-related cataracts,"in combination with 10-20 mg β-carotene and 400-500 mg vitamin C, doses around 400-500 IU",23%
same,blood plasma concentration of F2-isoprostane,large doses of 1600-3200 IU/day,significantly lower
Cc1cc(O)cc2c1O[C@](C)(CCC[C@H](C)CCC[C@H](C)CCCC(C)C)CC2 [δ-tocopherol],relative biological activity,[2],0.03
HGH: hormone comprising a peptide chain synthesized in the pituitary gland,biological half-life,[3],10-20 minutes
"CC12CCC(CC1)C(C)(C)O2 [eucalyptol, 1,8-epoxy-p-menthane]",increase of transdermal drug uptake (factor),skin [4],more than 10
Cc1cc(O)c(C)c2c1O[C@](C)(CCC[C@H](C)CCC[C@H](C)CCCC(C)C)CC2 [β-tocopherol],relative biological activity,[2],0.5
"C/C(=C\CO)CCC[C@H](C)CCC[C@H](C)CCCC(C)C [phytol, Phytol]",solubility,[5],"nearly insoluble in water, but soluble in most organic solvents"
"C=CCCCCCCCCC(=O)N[C@@H](Cc1ccccc1)C(=O)O [UP, Undecylenoyl phenylalanine]",time of treatment to skin lightening effects,skin [6],≥ 7 days
"CCCCCc1cc(O)c2c(c1)OC(C)(C)C1CCC(C)=CC21 (stereo not drawn) [THC, Δ-9-tetrahydrocannabinol]",analgesic power relative to morphine,[7],ten times more powerful than morphine
Cc1c(O)cc2c(c1C)O[C@](C)(CCC[C@H](C)CCC[C@H](C)CCCC(C)C)CC2 [γ-tocopherol],relative biological activity,[2],0.1
same,concentration in vivo relative to α-tocopherol,[8],roughly 10%
CC(C)[C@@H]1CC[C@@H](C)C[C@H]1O [Menthol],increase of transdermal drug uptake (factor),skin [4],≥ 10
